Experimental data taken from US4684664A, “Derivatives of β-(4-isocyano-1,2,3,4-diepoxycyclopentyl) acrylic acid” (Kureha Kagaku Kogyo Kabushiki Kaisha, priority 1984, dated 1987).
≈ marks a conversion by molar mass, not a printed value.

Assays:
Type in all cases: cell-based
[1] = system: Streptococcus faecium IFO 3826; test: Antibacterial activity, agar-dilution MIC, organism No. 27; conditions: Enterococcus faecium, IFO3826; Organism No. 27, bouillon-agar; read-out: Minimum Inhibitory Concentration
Procedure, shortened: (§1)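 Minimum inhibitory concentration determined on solid bouillon agar by the agar-dilution technique, with values stated as μg/ml.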

[2] = system: Staphylococcus aureus Terajima; test: Antibacterial activity, agar-dilution MIC, organism No. 2; conditions: Staphylococcus aureus; Organism No. 2, bouillon-agar; read-out: Minimum Inhibitory Concentration
Procedure, shortened: as §1

[3] = system: Salmonella shottmuelleri 8006; test: Antibacterial activity, agar-dilution MIC, organism No. 11; conditions: Salmonella, 8006; Organism No. 11, bouillon-agar; read-out: Minimum Inhibitory Concentration
Procedure, shortened: as §1

[4] = system: Pseudomonas aeruginosa NCTC 10490; test: Antibacterial activity, agar-dilution MIC, organism No. 16; conditions: Pseudomonas aeruginosa, NCTC10490; Organism No. 16, bouillon-agar; read-out: Minimum Inhibitory Concentration
Procedure, shortened: as §1

[5] = system: Aspergillus niger IFO 6342; test: Antifungal activity, agar-dilution MIC, organism No. 30; conditions: Aspergillus niger, IFO6342; Organism No. 30, bouillon-agar; read-out: Minimum Inhibitory Concentration
Procedure, shortened: as §1

[6] = system: Proteus mirabilis IFO 3849; test: Antibacterial activity, agar-dilution MIC, organism No. 19; conditions: Proteus mirabilis, IFO3849; Organism No. 19, bouillon-agar; read-out: Minimum Inhibitory Concentration
Procedure, shortened: as §1

[7] = system: Streptococcus pyogenes Cook; test: Antibacterial activity, agar-dilution MIC, organism No. 4; conditions: Streptococcus pyogenes; Organism No. 4, bouillon-agar; read-out: Minimum Inhibitory Concentration
Procedure, shortened: as §1

Proteus vulgaris OX-19 = test: Antibacterial activity, agar-dilution MIC, organism No. 20; conditions: Proteus vulgaris, OX19; Organism No. 20, bouillon-agar; read-out: Minimum Inhibitory Concentration
Procedure, shortened: as §1

[8] = system: Klebsiella pneumoniae PCI-602; test: Antibacterial activity, agar-dilution MIC, organism No. 7; conditions: Klebsiella pneumoniae, PCI602; Organism No. 7, bouillon-agar; read-out: Minimum Inhibitory Concentration
Procedure, shortened: as §1

Proteus vulgaris HX-19 = test: Antibacterial activity, agar-dilution MIC, organism No. 21; conditions: Proteus vulgaris, HX19; Organism No. 21, bouillon-agar; read-out: Minimum Inhibitory Concentration
Procedure, shortened: as §1

[9] = system: Mycoplasma pneumoniae IID817; test: Antimycoplasmal activity, MIC by phenol red colour change, organism No. 28; conditions: Mycoplasma, IID817; Organism No. 28, PPLO broth + 1% glucose, 37° C.; read-out: Minimum Inhibitory Concentration (MIC)
Experimental: Mycoplasma pneumoniae IID817 was used as the test microorganism in a culture medium prepared by adding 1% of glucose to "PPLO broth (manufactured by Difco Co.) liquid culture medium" at 37° C. with phenol red as an indicator, thereby culturing the test microorganism.

[10] = system: Salmonella enteritidis G 14; test: Antibacterial activity, agar-dilution MIC, organism No. 12; conditions: Salmonella enterica, ENTERITIDIS; Organism No. 12, bouillon-agar; read-out: Minimum Inhibitory Concentration
Procedure, shortened: as §1

[11] = system: Pseudomonas aeruginosa PAO 1; test: Antibacterial activity, agar-dilution MIC, organism No. 17; conditions: Pseudomonas aeruginosa, PAO1; Organism No. 17, bouillon-agar; read-out: Minimum Inhibitory Concentration
Procedure, shortened: as §1

[12] = system: Serratia marcescens IAM 1184; test: Antibacterial activity, agar-dilution MIC, organism No. 13; conditions: Serratia marcescens, IAM1184; Organism No. 13, bouillon-agar; read-out: Minimum Inhibitory Concentration
Text: Agar-dilution method was used for determination of the antibacterial activity and antifungal activity while using bouillon-agar culture medium, and the minimum inhibitory concentration of the specimen was expressed by μg/ml of the culture medium.

[13] = system: Micrococcus luteus ATCC 9341; test: Antibacterial activity, agar-dilution MIC, organism No. 25; conditions: Micrococcus luteus, ATCC9341; Organism No. 25, bouillon-agar; read-out: Minimum Inhibitory Concentration
Procedure, shortened: as §1

[14] = system: Escherichia coli NIHJ-JC-2; test: Antibacterial activity, agar-dilution MIC, organism No. 5; conditions: Escherichia coli, NIHJJC2; Organism No. 5, bouillon-agar; read-out: Minimum Inhibitory Concentration
Procedure, shortened: as §1

Salmonella typhi 901 = test: Antibacterial activity, agar-dilution MIC, organism No. 9; conditions: Salmonella enterica, TYPHI, read-out: Minimum Inhibitory Concentration
Procedure, shortened: as §1

Enterobacter cloacae 963 = test: Antibacterial activity, agar-dilution MIC, organism No. 24; conditions: Enterobacter cloacae, 963; Organism No. 24, bouillon-agar; read-out: Minimum Inhibitory Concentration
Procedure, shortened: as §1

[15] = system: Staphylococcus aureus FDA 209PJc-1; test: Antibacterial activity, agar-dilution MIC, organism No. 1; conditions: Staphylococcus aureus, FDA209PJC1; Organism No. 1, bouillon-agar; read-out: Minimum Inhibitory Concentration
Procedure, shortened: as §1

[16] = system: Proteus rettgeri IFO 3850; test: Antibacterial activity, agar-dilution MIC, organism No. 22; conditions: Providencia rettgeri, IFO3850; Organism No. 22, bouillon-agar; read-out: Minimum Inhibitory Concentration
Procedure, shortened: as §1

[17] = system: Salmonella paratyphi-A 1015; test: Antibacterial activity, agar-dilution MIC, organism No. 10; conditions: Salmonella enterica, PARATYPHI, read-out: Minimum Inhibitory Concentration
Procedure, shortened: as §1

[18] = system: Bacillus subtilis ATCC 6633; test: Antibacterial activity, agar-dilution MIC, organism No. 14; conditions: Bacillus subtilis, ATCC6633; Organism No. 14, bouillon-agar; read-out: Minimum Inhibitory Concentration
Procedure, shortened: as §1

[19] = system: Salmonella typhimurium IID 971; test: Antibacterial activity, agar-dilution MIC, organism No. 8; conditions: Salmonella enterica; Organism No. 8, bouillon-agar; read-out: Minimum Inhibitory Concentration
Procedure, shortened: as §1

[20] = system: Staphylococcus aureus MS 353; test: Antibacterial activity, agar-dilution MIC, organism No. 3; conditions: Staphylococcus aureus, MS353; Organism No. 3, bouillon-agar; read-out: Minimum Inhibitory Concentration
Procedure, shortened: as §1

[21] = system: Proteus morganii IFO 3848; test: Antibacterial activity, agar-dilution MIC, organism No. 18; conditions: Morganella morganii, IFO3848; Organism No. 18, bouillon-agar; read-out: Minimum Inhibitory Concentration
Procedure, shortened: as §1

[22] = system: Pseudomonas aeruginosa IFO 3445; test: Antibacterial activity, agar-dilution MIC, organism No. 15; conditions: Pseudomonas aeruginosa, IFO3445; Organism No. 15, bouillon-agar; read-out: Minimum Inhibitory Concentration
Procedure, shortened: as §1

[23] = system: Candida albicans IAM 4905; test: Antifungal activity, agar-dilution MIC, organism No. 29; conditions: Candida albicans, IAM4905; Organism No. 29, bouillon-agar; read-out: Minimum Inhibitory Concentration
Procedure, shortened: as §1

[24] = system: Streptococcus pyogenes IFO 3340; test: Antibacterial activity, agar-dilution MIC, organism No. 26; conditions: Streptococcus pyogenes, IFO3340; Organism No. 26, bouillon-agar; read-out: Minimum Inhibitory Concentration
Procedure, shortened: as §1

[25] = system: Enterobacter aerogenes ATCC 13048; test: Antibacterial activity, agar-dilution MIC, organism No. 23; conditions: Klebsiella aerogenes, ATCC13048; Organism No. 23, bouillon-agar; read-out: Minimum Inhibitory Concentration
Procedure, shortened: as §1

[26] = system: Escherichia coli K12 C600 IAM 1264; test: Antibacterial activity, agar-dilution MIC, organism No. 6; conditions: Escherichia coli, IAM1264; Organism No. 6, bouillon-agar; read-out: Minimum Inhibitory Concentration
Procedure, shortened: as §1

SMILES	MIC [1]	MIC [2]	MIC [3]	MIC [4]	MIC [5]	MIC [6]	MIC (Proteus vulgaris OX-19)	MIC [8]	MIC (Proteus vulgaris HX-19)	MIC [9]	MIC [10]	MIC [11]	MIC [12]	MIC [13]	MIC [14]	MIC (Salmonella typhi 901)	MIC (Enterobacter cloacae 963)	MIC [15]	MIC [16]	MIC [17]	also measured
[C-]#[N+]C12CC3(/C=C/C(=O)OCC(=O)c4ccc(Cl)cc4)OC3C1O2 (centres unmarked) [compound 5]	12.5 µg/mL (≈ 36.2 µM)	0.78 µg/mL (≈ 2.26 µM)	< 0.05 µg/mL	> 100 µg/mL	6.25 µg/mL (≈ 18.1 µM)	100 µg/mL (≈ 289 µM)	0.39 µg/mL (≈ 1.13 µM)	6.25 µg/mL (≈ 18.1 µM)	0.39 µg/mL (≈ 1.13 µM)	< 0.05 µg/mL	3.13 µg/mL (≈ 9.05 µM)	> 100 µg/mL	> 100 µg/mL	< 0.05 µg/mL	6.25 µg/mL (≈ 18.1 µM)	3.13 µg/mL (≈ 9.05 µM)	0.1 µg/mL (≈ 0.289 µM)	0.05 µg/mL (≈ 0.145 µM)	100 µg/mL (≈ 289 µM)	< 0.05 µg/mL	MIC [7]: 12.5 µg/mL (≈ 36.2 µM); MIC [18]: 12.5 µg/mL (≈ 36.2 µM); MIC [19]: 6.25 µg/mL (≈ 18.1 µM); MIC [20]: 0.78 µg/mL (≈ 2.26 µM); MIC [21]: 100 µg/mL (≈ 289 µM); MIC [22]: > 100 µg/mL; MIC [23]: 1.56 µg/mL (≈ 4.51 µM); MIC [24]: 1.56 µg/mL (≈ 4.51 µM); MIC [25]: 100 µg/mL (≈ 289 µM); MIC [26]: < 0.05 µg/mL
[C-]#[N+]C12CC3(/C=C/C(=O)OCC(=O)c4ccccc4)OC3C1O2 (centres unmarked) [Compound No. 3]	3.13 µg/mL (≈ 10.1 µM)	3.13 µg/mL (≈ 10.1 µM)	6.25 µg/mL (≈ 20.1 µM)	> 100 µg/mL	3.13 µg/mL (≈ 10.1 µM)	50 µg/mL (≈ 161 µM)	1.56 µg/mL (≈ 5.01 µM)	6.25 µg/mL (≈ 20.1 µM)	0.05 µg/mL (≈ 0.161 µM)	0.05 µg/mL	12.5 µg/mL (≈ 40.2 µM)	> 100 µg/mL	> 100 µg/mL	0.2 µg/mL (≈ 0.642 µM)	50 µg/mL (≈ 161 µM)	12.5 µg/mL (≈ 40.2 µM)	> 100 µg/mL	0.2 µg/mL (≈ 0.642 µM)	50 µg/mL (≈ 161 µM)	6.25 µg/mL (≈ 20.1 µM)	MIC [7]: 6.25 µg/mL (≈ 20.1 µM); MIC [18]: 50 µg/mL (≈ 161 µM); MIC [19]: 50 µg/mL (≈ 161 µM); MIC [20]: 0.05 µg/mL (≈ 0.161 µM); MIC [21]: 3.13 µg/mL (≈ 10.1 µM); MIC [22]: > 100 µg/mL; MIC [23]: 0.8 µg/mL (≈ 2.57 µM); MIC [24]: 6.25 µg/mL (≈ 20.1 µM); MIC [25]: > 100 µg/mL; MIC [26]: 50 µg/mL (≈ 161 µM)
[C-]#[N+]C12CC3(/C=C/C(=O)Nc4ccc(C(F)(F)F)cc4)OC3C1O2 (centres unmarked) [compound 46]	> 200 µg/mL	0.39 µg/mL (≈ 1.16 µM)	0.78 µg/mL (≈ 2.32 µM)	> 200 µg/mL	3.13 µg/mL (≈ 9.31 µM)	> 200 µg/mL	0.39 µg/mL (≈ 1.16 µM)	0.39 µg/mL (≈ 1.16 µM)	0.39 µg/mL (≈ 1.16 µM)	< 0.2 µg/mL	25 µg/mL (≈ 74.3 µM)	> 200 µg/mL	200 µg/mL (≈ 595 µM)	< 0.05 µg/mL	> 200 µg/mL	50 µg/mL (≈ 149 µM)	> 200 µg/mL	0.1 µg/mL (≈ 0.297 µM)	200 µg/mL (≈ 595 µM)	0.78 µg/mL (≈ 2.32 µM)	MIC [18]: 6.25 µg/mL (≈ 18.6 µM); MIC [19]: 50 µg/mL (≈ 149 µM); MIC [20]: < 0.05 µg/mL; MIC [21]: 1.56 µg/mL (≈ 4.64 µM); MIC [22]: > 200 µg/mL; MIC [23]: 1.56 µg/mL (≈ 4.64 µM); MIC [24]: 3.13 µg/mL (≈ 9.31 µM); MIC [25]: > 200 µg/mL; MIC [26]: > 200 µg/mL
